Test results taken from US12037333B2, “Pyridopyrazine and pyridotriazine inhibitors of influenza virus replication” (priority 2018, dated 2024).

Tested on: Influenza type A (strain A/PR/8/34, ATCC VR-95)
Assay: Influenza antiviral assay: inhibition of virus-induced cytopathic effects (CPE) in MDCK cells, XTT dye reduction
Assay type: cell-based
Settings: Influenza A virus, H1N1 / PR/8, MDCK, 96 h, strain A/PR/8/34, MDCK cells, CPE inhibition at 4 days

| SMILES | EC50 [nM] |
| --- | --- |
| COCCN1C(=O)c2c(O)c(=O)ccn2N(C23c4ccccc4CC2Cc2c(Cl)cccc23)C1C (stereo not shown) [Compound A125] | 250 to 375 |
| CCN1CN(C23c4ccccc4CC2(CC)Cc2ccccc23)n2ccc(=O)c(O)c2C1=O (stereo not shown) [Compound A157] | 125 to 250 |
| O=C1c2c(O)c(=O)ccn2N(C23c4ccccc4CC2Cc2c3ccc(F)c2F)CN1CCc1ccccc1 (stereo not shown) [Compound A25, 1-(1,2-difluoro-9a,10-dihydroindeno[1,2-a]inden-4b(9H)-yl)-5-hydroxy-3-phenethyl-2,3-dihydro-1H-pyrido[2,1-f][1,2,4]triazine-4,6-dione] | < 125 |
| CCOC12Cc3ccccc3C1(N1CN(CC)C(=O)c3c(O)c(=O)ccn31)c1ccccc1C2 (stereo not shown) [Compound A48, 1-(9a-Ethoxy-9a,10-dihydroindeno[1,2-a]inden-4b(9H)-yl)-3-ethyl-5-hydroxy-2,3-dihydro-1H-pyrido[2,1-f][1,2,4]triazine-4,6-dione] | < 125 |
| CC(C)CN1CN(C23c4cccc(F)c4CC2Cc2c(F)cccc23)n2ccc(=O)c(O)c2C1=O (stereo not shown) [Compound A156] | 250 to 375 |
| CC(C)CN1C(=O)c2c(O)c(=O)ccn2N(C23c4ccccc4CC2Cc2c(F)cccc23)C1C (stereo not shown) [Compound A117] | > 500 |
| Cc1c(F)ccc2c1CC1Cc3ccccc3C21N1CN(C)C(=O)c2c(O)c(=O)ccn21 (stereo not shown) [Compound A78] | < 125 |
| CCOC12Cc3ccccc3C1(N1CN(C)C(=O)c3c(O)c(=O)ccn31)c1ccccc1C2 (stereo not shown) [Compound A57] | < 125 |
| CN1C(=O)c2c(O)c(=O)ccn2N(C23C(=Cc4c(F)cccc42)Cc2c(F)cccc23)C1CN (stereo not shown) [Compound A106, 2-(aminomethyl)-1-(1,8-difluoroindeno[1,2-a]inden-4b(9H)-yl)-5-hydroxy-3-methyl-2,3-dihydro-1H-pyrido[2,1-f][1,2,4]triazine-4,6-dione] | 125 to 250 |
| O=C1c2c(O)c(=O)ccn2N(C23c4ccccc4CC2Cc2c3ccc(F)c2F)CN1C1CCC1 (stereo not shown) [Compound A92, 3-Cyclobutyl-1-(1,2-difluoro-9a,10-dihydroindeno[1,2-a]inden-4b(9H)-yl)-5-hydroxy-2,3-dihydro-1H-pyrido[2,1-f][1,2,4]triazine-4,6-dione] | 250 to 375 |
| O=C1c2c(O)c(=O)ccn2N(C23c4ccccc4CC2Cc2c3ccc(F)c2F)CN1CC1CC1 (stereo not shown) [Compound A9, 3-Cyclopropylmethyl-1-(1,2-difluoro-9a,10-dihydro-9H-indeno[1,2-a]inden-4b-yl)-5-hydroxy-2,3-dihydro-1H-pyrido[2,1-f][1,2,4]triazine-4,6-dione] | > 500 |
| CCN1CN(C23c4ccccc4CC2Cc2c3ccc(F)c2F)n2ccc(=O)c(O)c2C1=O (stereo not shown) [Compound A14, 1-(1,2-Difluoro-9a,10-dihydro-9H-indeno[1,2-a]inden-4b-yl)-3-ethyl-5-hydroxy-2,3-dihydro-1H-pyrido[2,1-f][1,2,4]triazine-4,6-dione] | < 125 |
| CCCN1C(=O)c2c(O)c(=O)ccn2N(C23c4ccccc4CC2Cc2c(Cl)cccc23)C1C (stereo not shown) [Compound A132] | 250 to 375 |
| O=C1c2c(O)c(=O)ccn2N(C23c4ccccc4CC2Cc2c(F)cccc23)CN1CCCF (stereo not shown) [Compound A79] | < 125 |
| CN1CN(C23c4ccccc4CC2(C)Cc2cc(F)ccc23)n2ccc(=O)c(O)c2C1=O (stereo not shown) [Compound A126] | 125 to 250 |
| COC12Cc3ccccc3C1(N1CN(C)C(=O)c3c(O)c(=O)ccn31)c1ccccc1C2 (stereo not shown) [Compound A62] | 125 to 250 |
| CN1CN(C23c4cccc(F)c4CC2Cc2c(F)cccc23)n2ccc(=O)c(O)c2C1=O (stereo not shown) [Compound A12, 1-(1,8-Difluoro-9a,10-dihydro-9H-indeno[1,2-a]inden-4b-yl)-5-hydroxy-3-methyl-2,3-dihydro-1H-pyrido[2,1-f][1,2,4]triazine-4,6-dione] | < 125 |
| CC1N(C)C(=O)c2c(O)c(=O)ccn2N1C12c3ccccc3CC1Cc1c(F)cccc12 (stereo not shown) [Compound A60] | < 125 |
| CN1CN(C23c4ccccc4CC2Cc2cccc(F)c23)n2ccc(=O)c(O)c2C1=O (stereo not shown) [Compound A145] | < 125 |
| O=C1c2c(O)c(=O)ccn2N(C23c4ccccc4CC2Cc2c3ccc(F)c2F)CN1CCF (stereo not shown) [Compound A74] | 125 to 250 |
| O=C1c2c(O)c(=O)ccn2N(C23c4cccc(F)c4CC2Cc2c(F)cccc23)CN1CC1CCOCC1 (stereo not shown) [Compound A81] | 125 to 250 |
| O=C1c2c(O)c(=O)ccn2N(C23c4ccccc4CC2Cc2c3ccc(F)c2F)CN1CC1CCCC1 (stereo not shown) [Compound A100] | > 500 |
| CN1CN(C23c4ccccc4CC2(C)Cc2ccccc23)n2ccc(=O)c(O)c2C1=O (stereo not shown) [Compound A150] | < 125 |
| CCC12Cc3ccccc3C1(N1CN(C)C(=O)c3c(O)c(=O)ccn31)c1ccccc1C2 (stereo not shown) [Compound A162] | < 125 |
| O=C1c2c(O)c(=O)ccn2N(C23c4ccccc4CC2Cc2cc(F)c(F)cc23)CN1Cc1cccc(F)c1 (stereo not shown) [Compound A24, 1-(2,3-difluoro-9a,10-dihydroindeno[1,2-a]inden-4b(9H)-yl)-3-(3-fluorobenzyl)-5-hydroxy-2,3-dihydro-1H-pyrido[2,1-f][1,2,4]triazine-4,6-dione] | > 500 |
